# Source: patent publication US12083187B2, “Method of treatment for solid tumors containing hypoxia and/or stroma features” (Wayne State University, priority 2017, dated 2024)
# Several values for one entry are separate records, joined by “and”; a condition that tells them apart may be missing. Identical values can stand only once.
# Key:
# [1] = cited from earlier work
# [2] = test system: AKT activity (pAKT); experiment: Western blot of AKT activation in WT and Evr-res A498 cells; type: cell-based, human; settings: vs untreated control
# Description: Western Blot analysis. For protein expression analysis, western blot experiments were conducted. The RCC cells were treated with DMSO/Vehicle (Control) for the indicated doses and times of the noted compound, and were lysed to prepare protein extracts. Cells were harvested and lysed in RIPA buffer (50 mM Tris-HCl, pH 8.0, 150 mM sodium chloride, 1.0% NP-40, 0.5% sodium deoxycholate, 0.1% sodium dodecyl sulfate (SDS), and 0.1% of protease inhibitor cocktail) for 20 min at 4° C. The lysates were then centrifuged at 14,000 rpm at 4° C. for 15 min to remove debris. The protein concentrations of whole cell lysates were then determined using the Protein Assay Kit. Supernatant proteins, 50 μg from each sample, were separated by SDS-10% polyacrylamide gel electrophoresis (SDS-PAGE) and transferred to polyvinylidene difluoride (PVDF) membrane (Bio-Rad, Hercules, CA) by standard procedures. The membranes were hybridized with primary antibodies followed by incubation with appropriate secondary antibodies. […]
# Mechanism of C4.16 for overcoming drug resistance. In this study, we determined how induction of apoptosis and inhibition of oncogenic survival signaling would reinforce the synergistic cell killing and reversal of drug resistance in VVT and Evr-res A498 cells when treated with CA IX C4.16+Sor. […]
# [3] = test system: A498 RCC cell-derived xenografts; experiment: A498 RCC cell-derived xenograft efficacy study in SCID mice; type: in vivo, mouse; settings: intravenous, 30 mg/kg/day
# Description: A dose of 30 mg/kg/day of this preparation was administered by intravenous (tail vein) injections for a total dose of 482 mg/kg in SCID mice bearing […]. […] In addition, after the completion of the animal experiment, tumors from treatment and control groups were dissected, and cryosectioned for imaging of apoptotic signs using TUNEL (Terminal deoxynucleotidyl transferase dUTP nick end labeling) and CARP-1.
# For efficacy studies, after a suitable period of acclimation, a suspension of 1×10^6 A498 RCC cells in 200 μl of serum-free Hank's balanced salt solution were subcutaneously implanted in flanks of each animal using a 27-gauge needle. Tumors were allowed to grow unperturbed for 10-14 days. When tumors became palpable (200 mm^3), the mice were randomly assigned to treatment or control groups of eight animals each. […] The end points for assessing antitumor activity consisted of tumor weight, tumor growth inhibition (% T/C), and tumor cell kill Log10. Tumor weight (mg)=(A×B2)/2 where A and B are the tumor length and width (in mm), respectively. Tumor growth inhibition (T/C) was the median tumor weight in the treated group (T) when the median tumor weight in the control group reached 750 mg. Results were expressed as percentage. […] Tumor volumes were calculated by the modified ellipsoidal formula. […]
# [4] = test system: A498 Everolimus resistant type; settings: for Combination Index (Cl) Drug + CFM4.16: A498 Everolimus resistant type, drug combined with CFM4.16, MTT, CompuSyn
# Description: Generation of Everolimus-resistant RCC cells.
# (§1) Cell Viability Assays. […] After treatment, an MTT assay was performed.
# (§2) In vitro cytotoxicity assay. […] First, the cells were seeded in a 96-well multiwell plate at a density of 5×10^3 cells per well. The cells were allowed to grow in fresh culture media overnight. CAIX-positive and CAIX-negative cells were generated by parallel treatments with hypoxia and normoxia as described above. After 20 h, the medium was removed, and the wells were washed twice with PBS. […] After treatment, an MTT assay was performed.
# (§3) RCC is very difficult to treat as the cells are mostly resistant to many current therapies. […] First, we determined cytotoxicity of individual drugs C4.16, Sor, and Evr in both A498. […] In order to understand the safety of combination therapy, we performed the hemolysis assay using CAIX-C4.16 and combination of CAIX-C4.16+Sor.
# [5] = test system: caspase-3/7; experiment: Caspase 3/7 assay in Evr-res A498 cells; type: cell-based, human; settings: RCC cells, vs control
# [6] = test system: A498 wild type; settings: for Combination Index (Cl) Drug + CFM4.16: A498 wild type, non-encapsulated drug combined with non-encapsulated CFM4.16, MTT, CompuSyn, CI<1 synergistic
# Description: as §1, §2, §3
# [7] = test system: OUK262 Everolimus resistant type; experiment: MTT / CompuSyn combination index in Everolimus resistant OUK262 RCC cells; settings: drug combined with CFM4.16
# Description: (§4) Cell Viability Assays. […] First, 5×10^3 cells were seeded in a 96-well plate in triplicate and allowed to grow in fresh culture media for another 24 h. Cells were then treated with respective agents for the noted doses and times. Control cells were treated with 0.1% DMSO in culture medium. After treatment, an MTT assay was performed. Briefly, 20 μL of 1 mg/ml of MTT was added to each well and cells were incubated for 2-4 h at 37° C. MTT was removed, and the resulting formazan products were dissolved by adding 50 μl DMSO/well followed by colorimetric analysis using a multi-label plate reader at 570 nm (Victor3; PerkinElmer, Wellesley, MA).
# (§5) All the clinically drugs were treated in combination with CFM4.16 with a range of concentrations using MTT assay in the specified RCC cell line, and the data were feed to CompuSyn program to obtain the CI-value.
# [8] = test system: OUK262 wild type; experiment: MTT / CompuSyn combination index in OUK262 wild type RCC cells; settings: drug combined with CFM4.16
# Description: as §4, §5
# [9] = test system: Evr-res A498 tumor; settings: mouse, in vivo
# Description: In Vivo Imaging Studies. S0456 a reactive near-infra-red fluorochrome, was covalently linked with PLNPs and used for in vivo near-IR optical imaging of selected nanoparticle formulations. The formulations were injected intravenously in female nude mice bearing tumor xenografts. The distribution and tumor targeted delivery were imaged by tracking the fluorescent output of IRDye 800® with in vivo Imaging System (see FIG. 11).
# PDX animal imaging and bio-distribution of CAIX-targeted-nanoformulation. A CAIX-targeted-nanomicelles conjugated with Near-infrared dye was administered directly via iv administration to 5-weeks old NCR SCID mice and the distribution behavior in the mice was monitored at different time points after administration using an in vivo imaging system.
# To ascertain core penetrating ability of CA IX-S0456 in a drug resistant tumor model, we performed three transverse sectioning of the isolated tumor after the bio-D study.
# [10] = test system: RCC; settings: cited from earlier work; for progression free survival: RCC, clinical
Compound,Combination Index (Cl) Drug + CFM4.16 [7],Combination Index (Cl) Drug + CFM4.16 [4],Combination Index (Cl) Drug + CFM4.16 [8],Combination Index (Cl) Drug + CFM4.16 [6],other results
"COc1cc2nccc(Oc3ccc(NC(=O)C4(C(=O)Nc5ccc(F)cc5)CC4)cc3)c2cc1OC [CB, cabozantinib]",–,–,–,–,"well tolerated dose ([1]; mouse, in vivo): 60 mg/kg"
O=C1N(Cc2ccccc2Cl)c2ccccc2C12NN=C(c1cccc(Cl)c1)S2 (stereo not drawn) [CFM-4.16],–,–,–,–,"AKT activity (pAKT) [2]: downregulation of pAKT; tumor growth / tumor size [3]: failed to inhibit tumor growth; growth inhibition (in vitro cytotoxicity, comparison) [4]: more effective in inhibiting growth of WT and Evr-res A498 compared with Sor; caspase-3/7 activity [5]: induced caspase-3/7 activation; growth inhibition (in vitro cytotoxicity, comparison) [6]: more effective in inhibiting growth of WT and Evr-res A498 compared with Sor; loss in body weight ([1]; 30 mg/kg/day iv, total dose 482 mg/kg, DMSO/cremophor preparation, SCID mice): < 2% and 1.6%; MTD ([1]; mouse, in vivo): 30 mg/kg"
CC(C)(C)c1nc(-c2cccc(NS(=O)(=O)c3c(F)cccc3F)c2F)c(-c2ccnc(N)n2)s1 [Dabrafenib],0.587,0.677,0.234,0.1385,–
CO[C@H]1C[C@@H]2CC[C@@H](C)[C@@](O)(O2)C(=O)C(=O)N2CCCC[C@H]2C(=O)O[C@H]([C@H](C)C[C@@H]2CC[C@@H](OCCO)[C@H](OC)C2)CC(=O)[C@H](C)/C=C(\C)[C@@H](O)[C@@H](OC)C(=O)[C@H](C)C[C@H](C)/C=C/C=C/C=C/1C [Everolimus],1.45,1.3,0.67,0.7,"growth inhibition (in vitro cytotoxicity, comparison) [4]: did not inhibit growth"
O=C(c1cc(Cc2n[nH]c(=O)c3ccccc23)ccc1F)N1CCN(C(=O)C2CC2)CC1 [Olaparip],1.312,1.121,0.9878,1.0978,–
CC(=O)c1c(C)c2cnc(Nc3ccc(N4CCNCC4)cn3)nc2n(C2CCCC2)c1=O [Palbociclib],1.0023,0.971,0.897,0.7,–
CC1(C)C(/C=C/C2=C(Cl)C(=C/C=C3/N(CCCCS(=O)(=O)[O-])c4ccc(S(=O)(=O)[O-])cc4C3(C)C)/CCC2)=[N+](CCCCS(=O)(=O)[O-])c2ccc(S(=O)(=O)[O-])cc21.[Na+].[Na+].[Na+] [S0456],–,–,–,–,tumor accumulation / selectivity [9]: poor tumor accumulation with high off-target activity
CNC(=O)c1cc(Oc2ccc(NC(=O)Nc3ccc(Cl)c(C(F)(F)F)c3)cc2)ccn1 [Sorafenib],–,–,–,–,AKT activity (pAKT) [2]: downregulation of pAKT; progression free survival [10]: 12 months
Nivolumab: immune-check point inhibitor (anti-PD1) approved for RCC,–,–,–,–,"response rate, higher than Evr ([10]; RCC patients): 5%; progression free survival [10]: 32 months"
